What all share (format): biochemical
In assay [1] the target is T1, ROCK2 (Homo sapiens, UniProt O75116). Description: radiometric […]-ATP kinase assay, single concentration […], percent inhibition.
Assay [2] deals with T1, ROCK2. Description: radiometric […]-ATP P81 filter binding kinase assay, 10-dose IC50 ([…] ATP).
The target in a further assay is ROCK1 (Homo sapiens, UniProt Q13464). Described as above.

From PMC11514586, “Development of Novel ROCK Inhibitors via 3D-QSAR and Molecular Docking Studies: A Framework for Multi-Target Drug Design” (Pharmaceutics, 2024) come the findings set out here.

As usually defined, the inhibition is how much of the control response was suppressed. What is called IC50 is the concentration needed to halve the response being measured. Low values mean greater potency in that assay, high ones weaker potency in that assay.

T1 sequence (O75116 whole entry): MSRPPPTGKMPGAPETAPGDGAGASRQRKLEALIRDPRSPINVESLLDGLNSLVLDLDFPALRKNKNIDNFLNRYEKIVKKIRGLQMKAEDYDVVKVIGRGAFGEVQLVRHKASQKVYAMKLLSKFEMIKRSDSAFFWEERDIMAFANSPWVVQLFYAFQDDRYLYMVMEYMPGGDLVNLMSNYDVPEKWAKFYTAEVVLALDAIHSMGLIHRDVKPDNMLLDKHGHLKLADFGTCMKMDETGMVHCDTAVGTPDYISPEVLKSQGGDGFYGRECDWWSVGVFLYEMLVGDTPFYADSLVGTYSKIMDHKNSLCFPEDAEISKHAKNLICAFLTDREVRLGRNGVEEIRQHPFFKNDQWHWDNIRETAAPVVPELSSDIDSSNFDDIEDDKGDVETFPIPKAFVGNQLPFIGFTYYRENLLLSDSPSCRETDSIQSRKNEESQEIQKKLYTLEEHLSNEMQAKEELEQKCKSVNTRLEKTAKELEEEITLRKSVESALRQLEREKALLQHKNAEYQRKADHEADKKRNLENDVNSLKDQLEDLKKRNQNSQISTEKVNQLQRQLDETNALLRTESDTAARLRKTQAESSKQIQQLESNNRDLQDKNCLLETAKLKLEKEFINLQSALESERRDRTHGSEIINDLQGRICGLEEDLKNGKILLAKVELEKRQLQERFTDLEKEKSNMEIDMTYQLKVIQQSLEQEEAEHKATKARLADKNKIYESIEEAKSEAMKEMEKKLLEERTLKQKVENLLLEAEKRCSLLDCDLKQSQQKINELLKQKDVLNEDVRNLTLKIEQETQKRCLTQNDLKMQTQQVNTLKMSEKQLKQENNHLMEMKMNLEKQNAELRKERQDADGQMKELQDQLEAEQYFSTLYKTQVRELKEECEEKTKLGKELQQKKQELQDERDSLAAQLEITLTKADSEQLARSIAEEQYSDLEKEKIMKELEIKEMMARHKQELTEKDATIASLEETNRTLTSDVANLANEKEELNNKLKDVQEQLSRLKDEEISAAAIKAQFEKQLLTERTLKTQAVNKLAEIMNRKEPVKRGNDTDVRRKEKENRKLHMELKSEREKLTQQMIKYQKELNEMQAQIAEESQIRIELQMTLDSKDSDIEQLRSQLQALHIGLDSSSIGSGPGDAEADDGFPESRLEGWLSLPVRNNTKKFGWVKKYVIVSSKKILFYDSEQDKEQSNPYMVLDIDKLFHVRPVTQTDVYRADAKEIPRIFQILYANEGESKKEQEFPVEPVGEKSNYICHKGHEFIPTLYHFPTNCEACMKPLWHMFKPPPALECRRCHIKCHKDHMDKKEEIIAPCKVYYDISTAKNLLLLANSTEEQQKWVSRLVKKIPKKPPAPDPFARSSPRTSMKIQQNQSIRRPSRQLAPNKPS
Sequence of ROCK1 (Q13464 2-1354): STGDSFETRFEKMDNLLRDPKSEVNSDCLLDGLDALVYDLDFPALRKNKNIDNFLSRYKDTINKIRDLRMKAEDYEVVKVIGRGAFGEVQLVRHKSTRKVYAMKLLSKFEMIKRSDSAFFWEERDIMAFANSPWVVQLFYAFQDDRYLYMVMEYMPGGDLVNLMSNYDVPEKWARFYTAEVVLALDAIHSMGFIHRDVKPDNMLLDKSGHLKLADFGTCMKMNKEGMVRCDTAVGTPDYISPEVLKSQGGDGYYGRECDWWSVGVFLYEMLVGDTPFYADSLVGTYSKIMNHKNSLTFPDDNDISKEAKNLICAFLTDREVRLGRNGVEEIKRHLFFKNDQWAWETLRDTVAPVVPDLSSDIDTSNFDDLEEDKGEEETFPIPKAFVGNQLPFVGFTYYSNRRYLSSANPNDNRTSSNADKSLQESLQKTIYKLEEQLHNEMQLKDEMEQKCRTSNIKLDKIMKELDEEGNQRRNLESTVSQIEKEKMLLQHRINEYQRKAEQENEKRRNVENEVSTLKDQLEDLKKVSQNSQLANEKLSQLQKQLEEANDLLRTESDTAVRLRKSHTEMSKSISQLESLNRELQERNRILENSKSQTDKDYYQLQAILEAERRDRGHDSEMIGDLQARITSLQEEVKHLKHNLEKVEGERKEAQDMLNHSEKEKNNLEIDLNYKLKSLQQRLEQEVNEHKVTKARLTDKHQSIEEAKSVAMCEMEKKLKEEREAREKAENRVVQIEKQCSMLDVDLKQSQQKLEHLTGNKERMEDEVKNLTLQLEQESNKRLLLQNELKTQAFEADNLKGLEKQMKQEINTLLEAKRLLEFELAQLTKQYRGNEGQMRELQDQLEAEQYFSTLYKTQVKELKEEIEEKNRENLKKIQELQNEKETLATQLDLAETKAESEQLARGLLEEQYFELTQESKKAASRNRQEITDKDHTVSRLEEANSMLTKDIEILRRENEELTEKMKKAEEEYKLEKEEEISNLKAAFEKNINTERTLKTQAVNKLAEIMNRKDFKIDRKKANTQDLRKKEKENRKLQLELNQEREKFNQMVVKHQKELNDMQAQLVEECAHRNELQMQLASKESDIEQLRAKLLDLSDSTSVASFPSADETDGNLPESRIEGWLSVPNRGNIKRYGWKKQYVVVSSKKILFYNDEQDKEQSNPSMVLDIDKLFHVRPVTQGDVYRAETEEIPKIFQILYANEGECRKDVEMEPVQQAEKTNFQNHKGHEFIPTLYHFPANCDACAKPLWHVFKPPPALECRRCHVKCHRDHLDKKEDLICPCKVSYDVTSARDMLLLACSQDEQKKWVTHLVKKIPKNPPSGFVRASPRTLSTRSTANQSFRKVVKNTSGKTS

`COc1cc(CN2CCCN(C(=O)/C=C/c3ccncc3)CC2)ccc1O` [C-22, 1-[4-(4-Hydroxy-3-methoxy-benzyl)-[1,4]diazepan-1-yl]-3-pyridin-4-yl-propenone] registered an inhibition at 10 µM on ROCK2 [1] of 72.5%.
Regarding `Cc1cc(F)ccc1CN1CCCN(S(=O)(=O)c2cccc3cnccc23)CC1` [C-19, 5-[4-(4-Fluoro-2-methyl-benzyl)-[1,4]diazepane-1sulfonyl]-isoquinoline], the IC50 on ROCK2 [2] came to 6.13 µM; on ROCK1, 4.22 µM.
